{"source": "paper PMC5955599", "about": "“The HTLV-1 gp21 fusion peptide inhibits antigen specific T-cell activation in-vitro and in mice” (PLoS Pathogens, 2018)", "tested_on": "MOG35-55–antigen specific T-cells", "test": "mRNA expression in activated T-cells (qRT-PCR)", "type": "cell-based, mouse (C57Bl/6J)", "conditions": "10μM; APC activation; RNA 24 hours following activation; normalized to Rpl13a; n≥3", "protocol": "Fig 2 Modulation of Th1/Th2 gene expression and cytokine secretion from activated T-cells by the HTLV FP. MOG35-55–antigen specific T-cells were activated by irradiated MOG35-55 presenting APCs, in the presence of the HTLV FP at 10μM. (A) Total RNA was isolated 24 hours following activation and mRNA expression levels were determined by qRT-PCR. The values of each gene were normalized to Rpl13a as a housekeeping control. The HTLV FP reduces mRNA expression of Th1 specific genes (IFNG, LTA, and STAT4) and elevates mRNA expression of Th2 specific genes (IL4 and IL10). The data is presented as arbitrary units. n≥3. (B) Media was collected 24 hours following activation and secretion of cytokines was measured by ELISA assay. IFN-γ secretion is inhibited, IL4 secretion is elevated and TNFα is not affected by the HTLV FP. n = 12. One-way ANOVA was used for statistical analysis. *P<0.05; **P<0.01;***P<0.001.\n(A-B) MOG35-55–antigen specific T-cells were activated by irradiated MOG35-55 presenting APCs, in the presence of the HTLV FP at 10μM. Total RNA was isolated 24 hours following activation and mRNA expression levels were determined by qRT-PCR. The values of each gene were normalized to Rpl13a as a housekeeping control. The HTLV FP reduces TBX21 (T-bet) mRNA expression and elevates GATA3 mRNA expression. The data is presented as arbitrary units. n≥3. (C-H) MOG35-55–antigen specific T-cells were activated by irradiated MOG35-55 presenting APCs, in the presence of either HTLV or HIV FP at 10μM. Samples were fixed in 4% PFA and stained with anti T-bet-APC and anti Gata3-FITC antibodies (C-D) 24, (E-F) 48 and (G-H) 72 hours following activation. Each time point is represented as cell count vs. APC or FITC fluorescence histogram. Analysis was performed using LSR-II flow cytometer (BD) and FlowJo cell analysis software (FlowJo, LLC). The HTLV FP reduces T-bet expression and elevates Gata3 expression. n = 3. One-way ANOVA was used for statistical analysis. ns, not significant; *P<0.05;** P<0.01.\nAntigen-specific T-cells were plated onto round 12-well plates (10^6 cells/ well) and activated with 5x10^5 irradiated (25 gray) APC and 5μg/ml of MOG p35-55 in the presence or absence of relevant peptides. Total RNA from cells was isolated 24 hours following activation using the NucleoSpin RNA II kit (Macherey-Nagel, Duren, Germany). 2μg aliquot of the total RNA was reverse transcribed into cDNA using Bio-RT (Bio-Lab, Jerusalem, Israel), dNTPs and random hexamer primers. qRT-PCR was performed on Step One Plus, ABI instrument (Applied Biosystems, Grand Island, NY, USA) using SYBR Green PCR Master Mix (Quanta BioSciences, Gaithersburg, MD, USA). The values for the specific genes were normalized to Rpl13a (mouse) as housekeeping controls and the data are described in arbitrary units. PCR reactions were performed in duplicate. The specific primers used for qRT-PCR are available on request."}
{"sequence": "AVPVAVWLVSALAMGAGVAGGITGSMSLASGKS [HTLV FP, gp21 fusion peptide of HTLV-1, MT-2 isolate]", "values": [{"measurement": "GATA3 mRNA expression", "result": "elevated Gata3 expression"}, {"measurement": "IFNG mRNA level", "result": "reduced the mRNA levels"}, {"measurement": "IL4 mRNA level", "result": "elevated the mRNA levels"}, {"measurement": "IL10 mRNA level", "result": "elevated the mRNA levels"}, {"measurement": "LTA mRNA level", "result": "reduced the mRNA levels"}, {"measurement": "STAT4 mRNA level", "result": "reduced the mRNA levels"}, {"measurement": "TBX21 (T-bet) mRNA expression", "result": "reduced TBX21 (T-bet) expression"}]}
